From patent publication US5013837A, “3-Arylcarbonyl-1H-indole-containing compounds” (Sterling Drug Inc., priority 1990, dated 1991)

What was measured:
[1] = tested on: mouse vasa deferentia (MVD) preparation; assay: mouse vas deferens test (MVD); format: cell-based; conditions: inhibition of contractions in vitro, active at IC50 of 5.0 μM or less
Description: Med. Assoc. 217, 1392 (1971)]. […] Opth. 7, 921-923 (1975); Green and Pederson, Effect of delta-9 Tetrahydrocannabinol on Aqueous Dynamics and Ciliary Body Permeability in the Rabbit Eye., Exptl. Eye Research 15, 499-507 (1973); Colasanti, Craig and Allara, Intraocular Pressure, Ocular Toxicity and Neurotoxicity after Administration of Cannabinol or Cannibigerol, Exptl. Eye Research 39, 252-259 (1984)]. Similarly, synthetic cannabinoids also reduce intraocular pressure [Green, Symunds, Oliver and Elijah, Intraocular Pressure Following Systemic Administration of Cannabinoids, Curr Eye Research 2, 247-253 (1982); Tiedeman, Shields, Weber, Crow, Coccetto, Harris and Howes, Ophthalmology, 88, 270-277 (1981); Colasanti et al., supra]. Cannabinoid receptor binding sites can be defined as those to which radio-labelled 4-(1,1-dimethylheptyl)-2,3'-dihydroxy-6'alpha-(3-hydroxypropyl)-1',2',3',4',5',6'-hexahydrobiphenyl (CP 55940) binds in a specific and saturable manner, and the binding sites are heterogeneously distributed in the brain [Devane, Dysarz, Johnson, Melvin and Howlett, Determination and Characterization of a Cannabinoid Receptor in Rat Brain, Molecular Pharm. 34, 605-613 (1988)]. Natural and synthetic cannabinoids and representative examples of the compounds of the present invention bind to CP 55940 binding sites. […]

[2] = topical application or systemic injection; cited from earlier work

Compound | IC50 [1] [nM] | effect on intraocular pressure [2]
O=C(c1ccc2ccccc2c1)c1cn(CCN2CCOCC2)c2ccccc12 [Example 1S] | 50 | 
CCCCCc1cc(O)c2c(c1)OC(C)(C)[C@@H]1CCC(C)=C[C@@H]21 [delta-9 tetrahydrocannabinol] |  | reduces intraocular pressure
